Data taken from PubChem BioAssay AID180 (DTP/NCI, 2004).
“And” between values parts separate entries of the source, which are not always exact repeats. Identical values can stand only once.

System: BDF1 mice, Adenocarcinoma 755 s.c., tumor weight T/C
Test: NCI In Vivo Anticancer Drug Screen. Data for tumor model Adenocarcinoma 755 (subcutaneous) in B6D2F1 (BDF1) mice
Settings: endpoint: mean tumor weight, higher = larger tumour
In short: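 In vivo antitumor screen on a transplantable tumor line. Result equals the measure in compound-treated animals divided by the same measure in vehicle controls.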

[1] = dose: 75.0 mg/kg/injection, schedule: Q01DX011 (ip), vehicle: saline
[2] = dose: 6.0 mg/kg/injection, schedule: Q01DX011 (ip), vehicle: carboxymethylcellulose (CMC)
[3] = dose: 12.0 mg/kg/injection, schedule: Q01DX011 (ip), vehicle: carboxymethylcellulose (CMC)
[4] = dose: 50.0 mg/kg/injection, schedule: Q01DX011 (ip), vehicle: carboxymethylcellulose (CMC)

With `c1nc(SC2=NCCN2)c2[nH]cnc2n1` the T/C (dose: 0.22 mg/kg/injection, schedule: Q01DX011 (ip), vehicle: saline) was 104 % of control, the T/C (dose: 0.45 mg/kg/injection, schedule: Q01DX011 (ip), vehicle: saline) was 72 % of control and the T/C (dose: 0.45 mg/kg/injection, schedule: Q01DX011 (oral), vehicle: saline) was 100 % of control. For the same molecule, the T/C (dose: 0.65 mg/kg/injection, schedule: Q01DX011 (ip), vehicle: saline) was 71 % of control, the T/C (dose: 0.9 mg/kg/injection, schedule: Q01DX011 (ip), vehicle: saline) was 61 % of control and the T/C (dose: 0.9 mg/kg/injection, schedule: Q01DX011 (oral), vehicle: saline) was 73 % of control. For the same molecule, the T/C (dose: 1.3 mg/kg/injection, schedule: Q01DX011 (ip), vehicle: saline) was 74 % of control, the T/C (dose: 1.8 mg/kg/injection, schedule: Q01DX011 (ip), vehicle: saline) was 15 % of control and the T/C (dose: 1.8 mg/kg/injection, schedule: Q01DX011 (oral), vehicle: saline) was 48 % of control. For the same molecule, the T/C (dose: 2.6 mg/kg/injection, schedule: Q01DX011 (ip), vehicle: saline) was 23 % of control, the T/C (dose: 2.62 mg/kg/injection, schedule: Q01DX011 (ip), vehicle: saline) was 4 % of control and 8 % of control and the T/C (dose: 3.6 mg/kg/injection, schedule: Q01DX011 (oral), vehicle: saline) was 21 % of control. The T/C (dose: 5.25 mg/kg/injection, schedule: Q01DX011 (ip), vehicle: saline) was 2 % of control and 3 % of control, the T/C (dose: 5.25 mg/kg/injection, schedule: Q01DX011 (oral), vehicle: saline) was 9 % of control and the T/C (dose: 8.0 mg/kg/injection, schedule: Q01DX001 (ip), vehicle: saline) was 38 % of control. The T/C (dose: 10.5 mg/kg/injection, schedule: Q01DX011 (ip), vehicle: saline) was 1 % of control and 2 % of control, the T/C (dose: 10.5 mg/kg/injection, schedule: Q01DX011 (oral), vehicle: saline) was 2 % of control and the T/C (dose: 16.0 mg/kg/injection, schedule: Q01DX001 (ip), vehicle: saline) was 57 % of control. For the same molecule, the T/C (dose: 20.0 mg/kg/injection, schedule: Q01DX011 (ip), vehicle: saline) was 31 % of control, the T/C (dose: 21.0 mg/kg/injection, schedule: Q01DX011 (ip), vehicle: saline) was 2 % of control and the T/C (dose: 21.0 mg/kg/injection, schedule: Q01DX011 (oral), vehicle: saline) was 1 % of control. The T/C (dose: 30.0 mg/kg/injection, schedule: Q01DX011 (ip), vehicle: saline) was 14 % of control, the T/C (dose: 31.0 mg/kg/injection, schedule: Q01DX001 (ip), vehicle: saline) was 29 % of control and the T/C (dose: 62.0 mg/kg/injection, schedule: Q01DX001 (ip), vehicle: saline) was 38 % of control.
With `O=C(Nc1ccc2c(O)c(N=Nc3ccccc3)c(S(=O)(=O)O)cc2c1)Nc1ccc2c(O)c(N=Nc3ccc4cc(S(=O)(=O)O)ccc4c3)c(S(=O)(=O)O)cc2c1` the T/C (dose: 45.0 mg/kg/injection, schedule: Q01DX011 (ip), vehicle: carboxymethylcellulose (CMC)) was 47 % of control.
In the case of `C=CC(=O)NCO`, the T/C (dose: 100.0 mg/kg/injection, schedule: Q01DX011 (ip), vehicle: other) is reported as 86 % of control, the T/C (dose: 150.0 mg/kg/injection, schedule: Q01DX011 (ip), vehicle: other) is reported as 89 % of control and the T/C (dose: 200.0 mg/kg/injection, schedule: Q01DX011 (ip), vehicle: other) is reported as 88 % of control.
In the case of `COC1=C(N)C(=O)c2nc(-c3nc(C(=O)O)c(C)c(-c4ccc(OC)c(OC)c4O)c3N)ccc2C1=O`, the T/C (dose: 0.02 mg/kg/injection, schedule: Q01DX011 (ip), vehicle: water) is reported as 72 % of control, the T/C (dose: 0.04 mg/kg/injection, schedule: Q01DX011 (ip), vehicle: water) is reported as 47 % of control and the T/C (dose: 0.08 mg/kg/injection, schedule: Q01DX011 (ip), vehicle: water) is reported as 55 % of control. The T/C (dose: 0.16 mg/kg/injection, schedule: Q01DX011 (ip), vehicle: water) was 4 % of control, the T/C (dose: 0.25 mg/kg/injection, schedule: Q01DX006 (ip), vehicle: water) was 41 % of control and the T/C (dose: 0.5 mg/kg/injection, schedule: Q01DX006 (ip), vehicle: water) was 10 % of control. For the same molecule, the T/C (dose: 50.0 micrograms/kg/injection, schedule: Q01DX011 (ip), vehicle: water) was 36 % of control and the T/C (dose: 75.0 micrograms/kg/injection, schedule: Q01DX011 (ip), vehicle: water) was 30 % of control.
With `COC1CC(OS(C)(=O)=O)C(COS(C)(=O)=O)O1` (configuration not stated) the T/C (dose: 25.0 mg/kg/injection, schedule: Q01DX011 (ip), vehicle: saline) was 120 % of control, the T/C [1] was 117 % of control and the T/C (dose: 225.0 mg/kg/injection, schedule: Q01DX011 (ip), vehicle: saline) was 104 % of control.
With `CCC(C)N1C(=O)CCC1=O` (configuration not stated) the T/C (dose: 37.5 mg/kg/injection, schedule: Q01DX011 (ip), vehicle: saline) was 26 % of control, the T/C [1] was 58 % of control and the T/C (dose: 150.0 mg/kg/injection, schedule: Q01DX011 (ip), vehicle: saline) was 95 % of control. For the same molecule, the T/C (dose: 300.0 mg/kg/injection, schedule: Q01DX011 (ip), vehicle: saline) was 99 % of control.
For `[I][Hg][CH2]C1OC2CCC1C[CH]2[Hg][I]` (configuration not stated), the T/C [2] was 89 % of control.
With `[Br][Hg][CH2]C1COC([CH2][Hg][Br])CO1` (configuration not stated) the T/C [2] was 101 % of control, the T/C [3] was 60 % of control and the T/C [4] was 27 % of control.
With `Cn1c(=O)c2[nH]cnc2n(C)c1=O` the T/C (dose: 14.5 mg/kg/injection, schedule: Q01DX011 (ip), vehicle: carboxymethylcellulose (CMC)) was 85 % of control, the T/C (dose: 18.25 mg/kg/injection, schedule: Q01DX011 (ip), vehicle: carboxymethylcellulose (CMC)) was 68 % of control and the T/C (dose: 19.87 mg/kg/injection, schedule: Q01DX011 (ip), vehicle: carboxymethylcellulose (CMC)) was 80 % of control. The T/C (dose: 29.0 mg/kg/injection, schedule: Q01DX011 (ip), vehicle: carboxymethylcellulose (CMC)) was 44 % of control, the T/C (dose: 36.5 mg/kg/injection, schedule: Q01DX011 (ip), vehicle: carboxymethylcellulose (CMC)) was 92 % of control and the T/C (dose: 39.74 mg/kg/injection, schedule: Q01DX011 (ip), vehicle: carboxymethylcellulose (CMC)) was 52 % of control. The T/C (dose: 63.0 mg/kg/injection, schedule: Q01DX011 (ip), vehicle: carboxymethylcellulose (CMC)) was 86 % of control, the T/C (dose: 77.33 mg/kg/injection, schedule: Q01DX011 (ip), vehicle: carboxymethylcellulose (CMC)) was 53 % of control and 72 % of control and the T/C (dose: 79.48 mg/kg/injection, schedule: Q01DX011 (ip), vehicle: carboxymethylcellulose (CMC)) was 53 % of control. The T/C (dose: 116.0 mg/kg/injection, schedule: Q01DX011 (ip), vehicle: carboxymethylcellulose (CMC)) was 75 % of control and the T/C (dose: 158.97 mg/kg/injection, schedule: Q01DX011 (ip), vehicle: carboxymethylcellulose (CMC)) was 60 % of control.
`CC(=O)OCC1CCCC(n2cnc3c(Cl)ncnc32)O1` (configuration not stated) was tested, and the T/C (dose: 62.5 mg/kg/injection, schedule: Q01DX011 (ip), vehicle: methylcellulose (MC)) was 74 % of control, the T/C (dose: 125.0 mg/kg/injection, schedule: Q01DX011 (ip), vehicle: methylcellulose (MC)) was 52 % of control and the T/C (dose: 250.0 mg/kg/injection, schedule: Q01DX011 (ip), vehicle: methylcellulose (MC)) was 26 % of control.
For `CCOc1ccccc1C(=O)Nc1ccc(Br)cc1`, the T/C [3] was 66 % of control, the T/C (dose: 25.0 mg/kg/injection, schedule: Q01DX011 (ip), vehicle: carboxymethylcellulose (CMC)) was 45 % of control and the T/C [4] was 40 % of control. The T/C (dose: 100.0 mg/kg/injection, schedule: Q01DX011 (ip), vehicle: carboxymethylcellulose (CMC)) was 28 % of control and 50 % of control, the T/C (dose: 200.0 mg/kg/injection, schedule: Q01DX011 (ip), vehicle: carboxymethylcellulose (CMC)) was 17 % of control and 23 % of control and the T/C (dose: 400.0 mg/kg/injection, schedule: Q01DX011 (ip), vehicle: carboxymethylcellulose (CMC)) was 7 % of control and 32 % of control. The T/C (dose: 400.0 mg/kg/injection, schedule: Q01DX011 (ip), vehicle: saline) was 32 % of control, the T/C (dose: 700.0 mg/kg/injection, schedule: Q01DX011 (ip), vehicle: carboxymethylcellulose (CMC)) was 22 % of control and the T/C (dose: 800.0 mg/kg/injection, schedule: Q01DX011 (ip), vehicle: carboxymethylcellulose (CMC)) was 42 % of control. The T/C (dose: 800.0 mg/kg/injection, schedule: Q01DX011 (ip), vehicle: saline) was 21 % of control.
`Cn1c(=O)c2[nH]c(N/N=C/c3ccccc3)nc2n(C)c1=O` was tested, and the T/C (dose: 20.0 mg/kg/injection, schedule: Q01DX011 (ip), vehicle: methylcellulose (MC)) was 56 % of control, the T/C (dose: 25.0 mg/kg/injection, schedule: Q01DX011 (ip), vehicle: methylcellulose (MC)) was 45 % of control and 53 % of control and the T/C (dose: 80.0 mg/kg/injection, schedule: Q01DX011 (ip), vehicle: methylcellulose (MC)) was 73 % of control. For the same molecule, the T/C (dose: 225.0 mg/kg/injection, schedule: Q01DX011 (ip), vehicle: methylcellulose (MC)) was 41 % of control and 46 % of control.
For `Nc1ncnc2c1ccn2C1OC(CO)C(O)C1O` (configuration not stated), the T/C (dose: 0.5 mg/kg/injection, schedule: Q01DX011 (ip), vehicle: carboxymethylcellulose (CMC)) was 68 % of control and the T/C (dose: 1.0 mg/kg/injection, schedule: Q01DX011 (ip), vehicle: carboxymethylcellulose (CMC)) was 76 % of control.
